Experimental findings from patent US8546320B2, “Hsp9O-targeted anti-cancer chimeric peptide” (Kyoto University, priority 2008, dated 2013) are described below.

One data set deals with cancer cells. Put plainly: Cell viability assay, summary statements on cancer cells. Type of data set: cell-based.
In another data set the test system is Caki-1. The data set is classed as cell-based, human. To be noted: Caki-1. The procedure:
A total of 3×10^3 cells were inoculated per well on a 96 well plate and cultured in a medium containing 10% FBS for 24 hours, and incubated with 100 μl of a peptide having a gradual increase in concentration at 37° C. for 48 to 72 hours. The survival rate of the cells was measured by using WST-8 solution (Cell Count Reagent SF; Nacalai Tesque, Inc.).
Respective variant peptides were subjected to cell viability assay. Specifically, Caki-1 (American Type Culture Collection (Manassas, Va.) was inoculated in a total amount of 3×10^3 cells per well on a 96 well plate (Nunc™); the cells were cultured in a medium (DMEM (Tesque, Inc.) containing 10% FBS (fetal bovine serum; Biowest)) for 24 hours and incubated with 100 μl of a peptide having a gradual increase in concentration at 37° C. for 48 to 72 hours. The cell survival rate was measured by using WST-8 solution (Cell Count Reagent SF; Nacalai Tesque, Inc.) and compared with that of the wild-type Antp-TPR peptide.
Respective variant peptides were subjected to cell viability assay. Specifically, Caki-1 (American Type Culture Collection (Manassas, Va.) was inoculated in a total amount of 3×10^3 cells per well on a 96 well plate (Nunc™); the cells were cultured in a medium containing 10% FBS for 24 hours and incubated with 100 μl of a peptide having a gradual increase in concentration at 37° C. for 48 to 72 hours. The cell survival rate was measured by using WST-8 solution (Cell Count Reagent SF; Nacalai Tesque, Inc.) and compared with that of the wild-type Antp-TPR peptide.

The test system of another data set is U937. Put plainly: cells. The data set is classed as cell-based, human. To be noted: U937; for Cell Survival Rate (%): concentration not given; for Anti-cancer activity (% relative to wild-type peptide) / Decrease in cell survival rate (% relative to wild-type peptide): wild-type peptide = 100%. Here is the method: A total of 3×10^3 cells per well were inoculated onto a 96 well plate, and incubated in a medium containing 10% FBS with 100 μl of a peptide diluted stepwise at 37° C. for 48 to 72 hours. The survival rate of the cells was measured by using WST-8 solution (Cell Count Reagent SF; Nacalai Tesque, Inc.).

Where a SMILES comes first, the peptide text is derived from it.

As for `CC[C@H](C)[C@H](NC(=O)[C@H](CCCCN)NC(=O)[C@@H](NC(=O)[C@H](CCC(N)=O)NC(=O)[C@@H](N)CCCNC(=N)N)[C@@H](C)CC)C(=O)N[C@@H](Cc1c[nH]c2ccccc12)C(=O)N[C@@H](Cc1ccccc1)C(=O)N[C@@H](CCC(N)=O)C(=O)N[C@@H](CC(N)=O)C(=O)N[C@@H](CCCNC(=N)N)C(=O)N[C@@H](CCCNC(=N)N)C(=O)N[C@@H](CCSC)C(=O)N[C@@H](CCCCN)C(=O)N[C@@H](Cc1c[nH]c2ccccc12)C(=O)N[C@@H](CCCCN)C(=O)N[C@@H](CCCCN)C(=O)N[C@@H](CCCCN)C(=O)N[C@@H](C)C(=O)N[C@@H](Cc1ccc(O)cc1)C(=O)N[C@@H](C)C(=O)N[C@@H](C)C(=O)N[C@@H](C)C(=O)NCC(=O)N[C@@H](CC(N)=O)C(=O)N[C@@H](CO)C(=O)N[C@@H](Cc1ccc(O)cc1)C(=O)N[C@@H](Cc1ccccc1)C(=O)N[C@@H](CCCCN)C(=O)O` (H-RQIKIWFQNRRMKWKKKAYAAAGNSYFK-OH; N-terminus and C-terminus assumed), the “cytotoxic activity / cell-killing effect” value in the data set on cancer cells was “the cytotoxic activity was lower”.
As to `CC[C@H](C)[C@H](NC(=O)[C@H](CCCNC(=N)N)NC(=O)[C@H](C)NC(=O)[C@H](Cc1ccc(O)cc1)NC(=O)[C@H](C)NC(=O)[C@H](CCCCN)NC(=O)[C@H](CCCCN)NC(=O)[C@H](CCCCN)NC(=O)[C@H](Cc1c[nH]c2ccccc12)NC(=O)[C@H](CCCCN)NC(=O)[C@H](CCSC)NC(=O)[C@H](CCCNC(=N)N)NC(=O)[C@H](CCCNC(=N)N)NC(=O)[C@H](CC(N)=O)NC(=O)[C@H](CCC(N)=O)NC(=O)[C@H](Cc1ccccc1)NC(=O)[C@H](Cc1c[nH]c2ccccc12)NC(=O)[C@@H](NC(=O)[C@H](CCCCN)NC(=O)[C@@H](NC(=O)[C@H](CCC(N)=O)NC(=O)[C@@H](N)CCCNC(=N)N)[C@@H](C)CC)[C@@H](C)CC)C(=O)NCC(=O)N[C@@H](CC(N)=O)C(=O)N[C@@H](CO)C(=O)NCC(=O)NCC(=O)NCC(=O)O` (H-RQIKIWFQNRRMKWKKKAYARIGNSGGG-OH), the “cytotoxic activity / cell-killing effect” value with cancer cells is given as “the cytotoxic activity was lower”.
Regarding `CC[C@H](C)[C@H](NC(=O)[C@H](CCCNC(=N)N)NC(=O)[C@H](C)NC(=O)[C@H](Cc1ccc(O)cc1)NC(=O)[C@H](C)NC(=O)[C@H](CCCCN)NC(=O)[C@H](C)NC(=O)[C@@H](NC(=O)[C@H](CCC(N)=O)NC(=O)[C@H](CCCNC(=N)N)NC(=O)[C@H](CCCCN)NC(=O)[C@H](CCCCN)NC(=O)[C@H](Cc1c[nH]c2ccccc12)NC(=O)[C@H](CCCCN)NC(=O)[C@H](CCSC)NC(=O)[C@H](CCCNC(=N)N)NC(=O)[C@H](CCCNC(=N)N)NC(=O)[C@H](CC(N)=O)NC(=O)[C@H](CCC(N)=O)NC(=O)[C@H](Cc1ccccc1)NC(=O)[C@H](Cc1c[nH]c2ccccc12)NC(=O)[C@@H](NC(=O)[C@H](CCCCN)NC(=O)[C@@H](NC(=O)[C@H](CCC(N)=O)NC(=O)[C@@H](N)CCCNC(=N)N)[C@@H](C)CC)[C@@H](C)CC)[C@@H](C)CC)C(=O)NCC(=O)N[C@@H](CC(N)=O)C(=O)N[C@@H](CO)C(=O)N[C@@H](Cc1ccc(O)cc1)C(=O)N[C@@H](Cc1ccccc1)C(=O)N[C@@H](CCCCN)C(=O)O` [Antp-TPR slong] (H-RQIKIWFQNRRMKWKKRQIAKAYARIGNSYFK-OH; N-terminus and C-terminus assumed), the “killing effect compared with the wild-type peptide” value with Caki-1 is recorded as “retained the effect of wild-type peptide”.
With “RQIKIWFQNRRMKWKKKGYGRIGNYYYK (Antp-TPR A2G,A4G,S9Y,F11Y peptide) [Antp-A2G, A4G, S9Y, F11Y]”, in the data set with U937, the “killing effect compared with the wild-type peptide” value is reported as “increase in effect”, the “Cell Survival Rate (%)” value came out at 21.14%, the “Anti-cancer activity (% relative to wild-type peptide)” value stood at 102.73% and the “Decrease in cell survival rate (% relative to wild-type peptide)” value amounted to 109.90%.
For the molecule “RQIKIWFQNRRMKWKKRKFSAAIGYNKY (Antp-scramble peptide) [reference compound]”, in the data set with U937, the “Cell Survival Rate (%)” value was determined as 95.30%, the “Anti-cancer activity (% relative to wild-type peptide)” value stood at 6.13% and the “Decrease in cell survival rate (% relative to wild-type peptide)” value is 24.39%.
